Legend:
[1] = mouse, in vivo
Method: (§1) After 5 minutes, 15 minutes, 30 minutes, 60 minutes, and 120 minutes from the administration, organs were dissected out of the mice (n=5).
as §1
(§2) (IB-PEG3)12-Ex4 (0.77 μCi) was administered to unanesthetized 6-week-old ddY mice (male, weight: 30 g) by intravenous injection (through the tail vein). After 5 minutes, 15 minutes, 30 minutes, 60 minutes, and 120 minutes from the administration, organs were dissected out of the mice (n=5). The weight and the radioactivity of each organ were determined, and an accumulation amount (% dose/g) of (IB-PEG3)12-Ex4 was calculated from the radioactivity per unit weight.
as §1
as §2, with “(FB-PEG3)12-Ex4 (5” for “(IB-PEG3)12-Ex4 (0.77”, “(FB-PEG3)12-Ex4” for “(IB-PEG3)12-Ex4”
as §2, with “(IB-ePEG12)12-Ex4 (0.21” for “(IB-PEG3)12-Ex4 (0.77”, “(IB-ePEG12)12-Ex4” for “(IB-PEG3)12-Ex4”

[2] = test system: pancreatic β-cells; test: Two-dimensional imaging analysis (fluorescence and autoradiography) of pancreas sections; format: in vivo, MIP-GFP mouse; details: without blocking
Method: (IB-PEG3)12-Ex4 (5.6 μCi/100 μl) was administered to an unanesthetized MIP-GFP mouse (male, weight: 20 g) by intravenous injection, and after 30 minutes from the administration, the pancreas was dissected out of the mouse (n=1). Sections were cut out of the dissected pancreas, and each section was placed on a slide glass, covered with a cover glass. The fluorescence and the radioactivity (autoradiography) of each section were determined using an image analyzer (trade name: Typhoon 9410, manufactured by GE Health Care Inc.) (exposure time 24 hours).
Sections were cut out of the dissected pancreas, and each section was placed on a slide glass, covered with a cover glass. The fluorescence and the radioactivity (autoradiography) of each section were determined using an image analyzer (trade name: Typhoon 9410, manufactured by GE Health Care Inc.) (exposure time 48 hours).
Other than these, the fluorescence and the radioactivity were determined in the same manner as above.
(FB-PEG3)12-Ex4 (292 μCi/220 μl) was administered to an unanesthetized MIP-GFP mouse (male, weight: 20 g) by intravenous injection, and after 15 minutes from the administration, the pancreas was dissected out of the mouse (n=1). Sections were cut out of the dissected pancreas, and each section was placed on a slide glass, covered with a cover glass. […]

Row | accumulation in the pancreas [1] | radioactive accumulation in the bone [1] | ratio of pancreas/blood [1] | ratio of pancreas/liver [1] | Substance | localization of the radioactivity signal versus GFP signal in pancreas sections [2]
1 | exceeding 15 % dose/g | small | greater than 5 | greater than 10 | (FB-PEG3)12-Ex4 | substantially consistent with that of the GFP signal
2 | exceeding 25 % dose/g | – | greater than 5 | greater than 10 | (IB-PEG3)12-Ex4 | substantially consistent with that of the GFP signal
3 | exceeding 25 % dose/g | – | greater than 5 | greater than 10 | (IB-ePEG12)12-Ex4 | –

Reference: patent publication US9278146B2, “Peptide derivative and use of the same” (priority 2010, dated 2016)
